Assay results reported in US20240207427A1, “SELECTIVE DRUG RELEASE FROM INTERNALIZED CONJUGATES OF BIOLOGICALLY ACTIVE COMPOUNDS” (priority 2021, published 2024).
pIC50: −log10 of the molar value. Where two headings read alike, the source gives them in different places.

Columns and labels:
Format in all cases: cell-based
[1] = system: renal carcinoma cells (786-O); assay: In vitro potency (CellTiter-Glo, 96 h), 786-O; conditions: Homo sapiens, 786-0, 96 h
In short: (§1)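 Log-phase cells were seeded for 24 h in RPMI 1640 with 20% FBS, then exposed to serially diluted antibody-drug conjugates or free camptothecin drug for 4 days at 37 °C. Growth inhibition was read by luminescence, and IC50 values were reported in ng/mL and nmol/L.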

melanoma cells (A2058) = assay: In vitro potency (CellTiter-Glo, 96 h), A2058; conditions: Homo sapiens, A2058, 96 h
In short: (§2)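 Seed log-phase cells 24 h (RPMI 1640, 20% FBS); add ADC serial dilutions; incubate 96 h, 37 °C; read luminescence; IC50 in ng/mL.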

[2] = system: pancreatic cancer cells (BxPC3); assay: In vitro potency (CellTiter-Glo, 96 h), BxPC3; conditions: Homo sapiens, BXPC-3, 96 h
In short: (§3)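 IC50 (ng/mL) was derived from growth inhibition of STR-authenticated lines held in culture under 2 months after thawing. Cells were grown in RPMI 1640 plus 20% FBS and treated with ADC dilution series for 96 h at 37 °C.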

[3] = system: non-small-cell lung cancer cells (Calu1); assay: In vitro potency (CellTiter-Glo, 96 h), Calu1; conditions: Homo sapiens, Calu-1, 96 h
In short: as §2

[4] = system: anaplastic large cell lymphoma cells (DEL); assay: In vitro potency (CellTiter-Glo, 96 h), DEL
In short: as §1

[5] = system: anaplastic large cell lymphoma cells (DELBVR); assay: In vitro potency (CellTiter-Glo, 96 h), DELBVR
In short: as §1

[6] = system: anaplastic large cell lymphoma cells (Karpas299); assay: In vitro potency (CellTiter-Glo, 96 h), Karpas299; conditions: Homo sapiens, KARPAS-299, 96 h
In short: as §1

[7] = system: Hodgkin's lymphoma cells (L540cy); assay: In vitro potency (CellTiter-Glo, 96 h), L540cy
In short: as §1

Ls174T cells = assay: In vitro potency (CellTiter-Glo, 96 h), Ls174T; conditions: Homo sapiens, LS174T
In short: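 Growth inhibition after 96 h at 37 °C with test article, measured by luminescence; cells in RPMI 1640, 20% FBS.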

[8] = system: breast cancer cells (MDA-MB-231); assay: In vitro potency (CellTiter-Glo, 96 h), MDA-MB-231; conditions: Homo sapiens, MDA-MB-231, 96 h
In short: as §1

[9] = system: acute myeloid leukemia cells (MOLM-13); assay: In vitro potency (CellTiter-Glo, 96 h), MOLM-13; conditions: Homo sapiens, MOLM-13, 96 h
In short: as §3

[10] = system: B-lymphocyte cancer cells (SU-DHL4); assay: In vitro potency (CellTiter-Glo, 96 h), SU-DHL-4; conditions: Homo sapiens, SU-DHL-4, 96 h
In short: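 RPMI 1640/20% FBS cultures, log phase, plated 24 h → ADC titration → 4 d, 37 °C → luminescence → IC50, ng/mL.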

[11] = CPT free drugs, Table 24, CellTiter-Glo after 96 h exposure, read-out: IC50 (nmol/L) 786-O
[12] = CPT free drugs, Table 24, CellTiter-Glo after 96 h exposure, read-out: IC50 (nmol/L) A2058
[13] = CPT free drugs, Table 24, CellTiter-Glo after 96 h exposure, read-out: IC50 (nmol/L) BxPC3
[14] = CPT free drugs, Table 24, CellTiter-Glo after 96 h exposure, read-out: IC50 (nmol/L) Calu1
[15] = CPT free drugs, Table 24, CellTiter-Glo after 96 h exposure, read-out: IC50 (nmol/L) DEL
[16] = CPT free drugs, Table 24, CellTiter-Glo after 96 h exposure, read-out: IC50 (nmol/L) DELBVR
[17] = CPT free drugs, Table 24, CellTiter-Glo after 96 h exposure, read-out: IC50 (nmol/L) Karpas299
[18] = CPT free drugs, Table 24, CellTiter-Glo after 96 h exposure, read-out: IC50 (nmol/L) L540cy
[19] = CPT free drugs, Table 24, CellTiter-Glo after 96 h exposure, read-out: IC50 (nmol/L) Ls174T
[20] = CPT free drugs, Table 24, CellTiter-Glo after 96 h exposure, read-out: IC50 (nmol/L) MDAMB231
[21] = CPT free drugs, Table 24, CellTiter-Glo after 96 h exposure, read-out: IC50 (nmol/L) MOLM-13
[22] = CPT free drugs, Table 24, CellTiter-Glo after 96 h exposure, read-out: IC50 (nmol/L) SU-DHL-4
[23] = read-out: IC50 (nmol/L) 786-O, CPT free drugs, Table 24, CellTiter-Glo after 96 h exposure
[24] = read-out: IC50 (nmol/L) BxPC3, CPT free drugs, Table 24, CellTiter-Glo after 96 h exposure
[25] = read-out: IC50 (nmol/L) DEL, CPT free drugs, Table 24, CellTiter-Glo after 96 h exposure
[26] = read-out: IC50 (nmol/L) DELBVR, CPT free drugs, Table 24, CellTiter-Glo after 96 h exposure
[27] = read-out: IC50 (nmol/L) Karpas299, CPT free drugs, Table 24, CellTiter-Glo after 96 h exposure
[28] = read-out: IC50 (nmol/L) L540cy, CPT free drugs, Table 24, CellTiter-Glo after 96 h exposure
[29] = 96 h, read-out: IC50 (nmol/L) Ls174T, CPT free drugs, Table 24, CellTiter-Glo after 96 h exposure
[30] = read-out: IC50 (nmol/L) MDAMB231, CPT free drugs, Table 24, CellTiter-Glo after 96 h exposure
[31] = read-out: IC50 (nmol/L) MOLM-13, CPT free drugs, Table 24, CellTiter-Glo after 96 h exposure
[32] = read-out: IC50 (nmol/L) SU-DHL-4, CPT free drugs, Table 24, CellTiter-Glo after 96 h exposure

Compound | pIC50 [1, 11] | pIC50 (melanoma cells (A2058); [12]) | pIC50 [2, 13] | pIC50 [3, 14] | pIC50 [4, 15] | pIC50 [5, 16] | pIC50 [6, 17] | pIC50 [7, 18] | pIC50 (Ls174T cells; [19]) | pIC50 [8, 20] | pIC50 [9, 21] | pIC50 [10, 22] | pIC50 [1, 23] | pIC50 [2, 24] | pIC50 ([3]; read-out: IC50 (nmol/L) Calu1) | pIC50 [6, 27] | pIC50 [7, 28] | pIC50 (Ls174T cells; [29]) | pIC50 [8, 30] | pIC50 [9, 31] | also measured
CC[C@@]1(O)C(=O)OCc2c1cc1n(c2=O)Cc2c-1nc1cc(F)c(F)cc1c2CN [Compound 2l] | 7.82 | 8.40 | 7.46 | 7.38 | 8.48 | 8.68 | 8.10 | 8.40 | 8.09 | 8.10 | 7.80 | 8.40 |  |  |  |  |  |  |  |  | 
CC[C@@]1(O)C(=O)OCc2c1cc1n(c2=O)Cc2c-1nc1cc3c(cc1c2CN)OCC3 [Compound 2m] |  |  |  |  |  |  |  |  |  |  |  |  | 7.26 | 6.89 | 6.60 | 7.24 | 7.75 | 7.77 | 7.46 | 7.22 | pIC50 (melanoma cells (A2058); read-out: IC50 (nmol/L) A2058): 7.79; pIC50 [4, 25]: 7.96; pIC50 [5, 26]: 7.85; pIC50 [10, 32]: 7.65
CC[C@@]1(O)C(=O)OCc2c1cc1n(c2=O)Cc2c-1nc1cc3c(cc1c2CN)CCO3 [Compound 2n] |  |  |  |  |  |  |  |  |  |  |  |  | 9.00 | 8.52 | 7.68 | 9.00 | 9.00 | 9.10 | 9.00 | 8.22 | pIC50 ([1]; read-out: 786-O IC50, Table 28, CPT free drugs, renal carcinoma cells 786-O, 96 h, CellTiter-Glo): 8.30; pIC50 (melanoma cells (A2058); read-out: A2058 IC50): 8.52; pIC50 ([2]; read-out: BxPC3 IC50, Table 28, CPT free drugs, pancreatic cancer cells BxPC3, 96 h, CellTiter-Glo): 8.52; pIC50 ([3]; read-out: Calu1 IC50): 7.74; pIC50 ([4]; read-out: DEL IC50, Table 28, CPT free drugs, anaplastic large cell lymphoma cells DEL, CellTiter-Glo): 9.00; pIC50 ([5]; read-out: DELBVR IC50, Table 28, CPT free drugs, anaplastic large cell lymphoma cells DELBVR, CellTiter-Glo): 9.00; pIC50 ([6]; read-out: Karpas299 IC50, Table 28, CPT free drugs, anaplastic large cell lymphoma cells Karpas299, 96 h, CellTiter-Glo): 8.30; pIC50 ([7]; read-out: L540cy IC50, Table 28, CPT free drugs, Hodgkin's lymphoma cells L540cy, CellTiter-Glo): 8.70; pIC50 (Ls174T cells; 96 h, read-out: Ls174T IC50, Table 28, CPT free drugs, Ls174T cells, 96 h, CellTiter-Glo): 8.40; pIC50 ([8]; read-out: MDAMB231 IC50, Table 28, CPT free drugs, breast cancer cells MDA-MB-231, 96 h, CellTiter-Glo): 8.10; pIC50 ([9]; read-out: MOLM-13 IC50, Table 28, CPT free drugs, acute myeloid leukemia cells MOLM-13, 96 h, CellTiter-Glo): 7.54; pIC50 [10, 32]: 9.00; pIC50 ([10]; read-out: SU-DHL-4 IC50, Table 28, CPT free drugs, B-lymphocyte cancer cells SU-DHL4, 96 h, CellTiter-Glo): 9.00
CC[C@@]1(O)C(=O)OCc2c1cc1n(c2=O)Cc2c-1nc1cc(C)c(C)c(F)c1c2CN [Compound 2o] | 7.18 | 7.74 | < 6.00 | 6.39 | 8.00 | 7.80 | 7.43 | 7.70 | 7.71 | 7.43 | 6.46 | 7.74 |  |  |  |  |  |  |  |  | 
CC[C@@]1(O)C(=O)OCc2c1cc1n(c2=O)Cc2c-1nc1cccc(F)c1c2CN [Compound 2p] | 7.85 | 7.96 | 7.21 | 6.80 | 8.40 | 8.10 | 7.57 | 8.15 | 7.82 | 7.72 | 7.62 | 7.85 |  |  |  |  |  |  |  |  | 
CC[C@@]1(O)C(=O)OCc2c1cc1n(c2=O)Cc2c-1nc1cc(F)c(C)c(Br)c1c2CN [Compound 2q, (S)-11-(aminomethyl)-10-bromo-4-ethyl-8-fluoro-4-hydroxy-9-methyl-1,12-dihydro-14H-pyrano[3′,4′:6,7]indolizino[1,2-b]quinoline-3,14(4H)-dione] |  |  |  |  |  |  |  |  |  |  |  |  | 8.40 | 7.29 | 7.11 | 8.59 | 8.40 | 8.30 | 8.27 | 7.76 | pIC50 (melanoma cells (A2058); read-out: IC50 (nmol/L) A2058): 8.32; pIC50 [4, 25]: 9.00; pIC50 [5, 26]: 9.00; pIC50 [10, 32]: 8.82
